The text below walks through data of paper PMC10895676, “Antiviral Activity of Lipophilic Nucleoside Tetraphosphate Compounds” (Journal of Medicinal Chemistry, 2024).

Entries after “also recorded” stand apart in the source; their conditions may differ.

Data set [1] concerns the target T1, HIV-RT (Human immunodeficiency virus type 1 group M subtype B, UniProt P03366).
T1 construct: HIV-RT HIV reverse transcriptase; purchased Roboklon
In words: Primer extension assay using HIV-RT. To be noted: 30 min, 6 U HIV-RT, 37 °C. Format: biochemical. As for the experimental part: (§1) Figure 6 Primer extension assay using HIV-RT (A), human polymerases α (B), β (C), and γ (D). (Figure 6A). Primer extension assay using HIV-RT (30 min, 6U). Lane 1: (+) dATP, dCTP, dGTP, and TTP with HIV-RT. Lane 2: (−) dATP, dCTP, dGTP, and TTP without HIV-RT. Lane 3: TTP. […] Lane 5: δ-(C4; C18)-d4T4P 4d. […] Lane 7: δ-(C18)-d4T4P 20. Lane 8: δ-C-(C18)-d4T4P 24. Lane 9: d4T4P. Lane 10: d4TTP. Lane 11: d4TDP. HIV-RT assay reaction conditions: 50 mM Tris–HCl (pH 8.6), 10 mM MgCl2, 40 mM KCl, 250 μM dNTPs, HIV-RT (6 U), 0.20 μM DNA hybrid, primer-template-hybrid 0.32 mM in a reaction volume of 10 μL, incubated at 37 °C for 0.5 h, 80 °C for 7 min. Primer extension assays: 50 mA, 45 w for 4 h. (Figure 6B). For human DNA polymerase α assay (60 min, 2 U): Lane 1: (+) dATP, dCTP, dGTP, and TTP with human polymerase α. Lane 2: (−) dATP, dCTP, dGTP, and TTP without human polymerase α. Lane 3: TTP. […] Lane 5: δ-(C4; C18)-d4T4P 4d. […] Lane 7: δ-(C18)-d4T4P 20. Lane 8: δ-C-(C18)-d4T4P 24. Lane 9: d4T4P. Lane 10: d4TTP. Human DNA polymerase α assay conditions: 60 mM Tris–HCl (pH 8), 5 mM Mg(OAc)2, 100 mM KCl, 1.0 mM dithiothreitol, 0.1 mM spermine, 0.01% (w/v) bovine serum albumin, 250 μM dNTPs, 2 U human polymerase α, 0.20 μM DNA hybrid, and primer-template-hybrid 0.32 mM in a reaction volume of 10 μL, incubated at 37 °C for 1 h, 80 °C for 7 min. Primer extension assays: 50 mA, 45 w for 3 h. (Figure 6C). For human DNA polymerase β assay (60 min, 2 U): Lane 1: (+) dATP, dCTP, dGTP, and TTP with human polymerase β. Lane 2: (−) dATP, dCTP, dGTP, and TTP without human polymerase β. Lane 3: TTP. […] Lane 5: δ-(C4; C18)-d4T4P 4d. […] Lane 7: δ-(C18)-d4T4P 20. Lane 8: δ-C-(C18)-d4T4P 24. Lane 9: d4T4P. Lane 10: d4TTP. Human DNA polymerase β assay conditions: 50 mM Tris–HCl (pH 8.7), 10 mM Mg(OAc)2, 100 mM KCl, 1.0 mM dithiothreitol, 0.1 mM spermine, 0.01% (w/v) bovine serum albumin, 15% glycerol, 250 μM dNTPs, 2 U human DNA polymerase β, 0.20 μM DNA hybrid, and primer-template-hybrid 0.32 mM in a reaction volume of 10 μL, incubated at 37 °C for 1 h, 80 °C for 7 min. Primer extension assays: 50 mA, 45 w for 3 h. (Figure 6D), For the human DNA polymerase γ assay (120 min, 2 U): Lane 1: (+) dATP, dCTP, dGTP, and TTP with human polymerase γ. Lane 2: (−) dATP, dCTP, dGTP, and TTP without human polymerase γ. Lane 3: TTP. […] Lane 5: δ-(C4; C18)-d4T4P 4d. […] Lane 7: δ-(C18)-d4T4P 20. Lane 8: δ-C-(C18)-d4T4P 24. Lane 9: d4T4P. Lane 10: d4TTP. Human polymerase γ assay conditions: 60 mM Tris–HCl (pH 8), 5 mM Mg(OAc)2, 1.0 mM dithiothreitol, 0.1 mM spermine, 0.01% (w/v) bovine serum albumin, 250 μM dNTPs, 2 U human polymerase γ, 0.5 μM MnCl2, 0.20 μM DNA hybrid, primer-template-hybrid 0.32 mM in a reaction volume of 10 μL, incubated at 37 °C for 2 h, 80 °C for 7 min. Primer extension assays: 50 mA, 45 w for 3 h.
HIV-RT and human polymerases α, β, and γ were bought from Roboklon and Chimerx. The fluorescent-labeled primer and template were obtained from Metabion.
For the annealing of the primer/template mixture, 40 μL of the 10 μM primer and 60 μL of the 10 μM template were incubated for 5 min at 95 °C. Then, for optimal annealing, the temperature was reduced over a period of 2 h to 20 °C and incubated again for 20 min at 20 °C.
For the primer extension, the reaction mixture was incubated for 30 min for the HIV-RT, 60 min for the human DNA polymerase α, and 120 min for the human DNA polymerases β and γ at 37 °C, followed by 7 min at 80 °C.

Data set [2] has as its target T2, human DNA polymerase β (Homo sapiens, UniProt P06746).
T2 construct: purchased Chimerx
Briefly: Primer extension assay using human DNA polymerase β. Type of data set: biochemical. To be noted: 60 min, 2 U, 37 °C.
From the text: Encouraged by the previously obtained results that γ-phosphate-modified-d4TDPs 3, γ-monoalkylated d4TTP derivatives as well as d4TDP were accepted as substrates by HIV-RT,[49],[50],[55],[59]−[61] δ-dialkylated d4T tetraphosphate analogues 4,5, δ-monoalkylated d4T tetraphosphate analogues 20 and 24 and d4T4P were investigated in primer extension assays in the presence of HIV-RT or the three different human DNA polymerases α, β and γ. D4TTP (for the compounds 4–9) and the natural thymidine triphosphate (TTP) were used as reference compounds.
as §1
HIV-RT and human polymerases α, β, and γ were bought from Roboklon and Chimerx. The fluorescent-labeled primer and template were obtained from Metabion. […]

Data set [3] is described as follows: Cytotoxicity, inhibition of CEM cell proliferation. Format: cell-based. To be noted: human, CEM cells (CD4+ T-cells), read-out: toxicity CC50.
Data set [4] is described as follows: Cytotoxicity, inhibition of CEM/TK– cell proliferation. Type of data set: cell-based. The settings on record: human, CEM/TK– cells (CD4+ T-cells), read-out: toxicity CC50.
In data set [5] the test system is HIV-1 (HE). Briefly: Anti-HIV replication assay, HIV-1 (HE) in wild-type CEM/0 cells. The settings on record: Human immunodeficiency virus 1, CCRF-CEM, read-out: HIV-1 (HE) EC50. Format: cell-based. As for the experimental part: Inhibition of HIV-1(HE)- and HIV-2(ROD)-induced cytopathogenicity in wild-type CEM/0 CEM CD4^+ T-cells and thymidine kinase-deficient CEM/TK^– cell cultures was measured in microtiter 96-well plates containing ∼3 × 10^5 CEM cells/mL infected with 100 CCID50 of HIV per milliliter and containing appropriate dilutions of the test compounds. After 4–5 days of incubation at 37 °C in a CO2-controlled humidified atmosphere, virus-induced cellular effects and syncytia cell formation were examined microscopically. The EC50 (50% effective concentration) was defined as the compound concentration required to inhibit HIV-induced giant cell formation by 50%.

For data set [6], the system named is HIV-2 (ROD). In words: Anti-HIV replication assay, HIV-2 (ROD) in wild-type CEM/0 cells. Format: cell-based. To be noted: Human immunodeficiency virus 2, CCRF-CEM, read-out: HIV-2 (ROD) EC50. As for the experimental part:
(§2) Inhibition of HIV-1(HE)- and HIV-2(ROD)-induced cytopathogenicity in wild-type CEM/0 CEM CD4^+ T-cells and thymidine kinase-deficient CEM/TK^– cell cultures was measured in microtiter 96-well plates containing ∼3 × 10^5 CEM cells/mL infected with 100 CCID50 of HIV per milliliter and containing appropriate dilutions of the test compounds. After 4–5 days of incubation at 37 °C in a CO2-controlled humidified atmosphere, virus-induced cellular effects and syncytia cell formation were examined microscopically.

Data set [7] in a line: Chemical hydrolysis in aqueous buffers (PBS pH 7.3 / 8.0, citrate buffer pH 2.0), RP18-HPLC. Type of data set: physicochemical. To be noted: phosphate buffered saline; 25 mM PBS, pH 7.3, 37 °C; read-out: PBS pH 7.3 t1/2 (converted). As for the experimental part:
All metabolite mixtures were analyzed and quantified by means of analytical RP18-HPLC (UV detection).
The solution was incubated at 37 °C in a thermomixer. […] for each extraction and stored at −30 °C. When testing, samples were warmed up to room temperature, and 25 or 20 μL of the liquid was taken and injected into the analytical RP-18-HPLC instrument. Further aliquots were taken for monitoring the kinetic hydrolysis.
5.88 g of citric acid and 3.58 g of NaCl were dissolved in 82 mL of hydrochloric acid (0.1 mol/L). Then, sodium hydroxide was added to adjust the pH to 2.0.

For data set [8], the system named is HIV-2 (ROD). In words: Anti-HIV replication assay, HIV-2 (ROD) in thymidine kinase-deficient CEM/TK– cells. The settings on record: Human immunodeficiency virus 2, CEM-TK(-), read-out: CEM/TK– HIV-2 (ROD) EC50. Type of data set: cell-based. As for the experimental part:
as §2

On to `Cc1cn(C2C=CC(COP(=O)(O)OP(=O)(O)O)O2)c(=O)[nH]c1=O` (stereo not shown) [d4TDP, reference compound], for which the “substrate for HIV-RT (primer extension)” value in data set [1] is given as “good substrates”.
For the compound `Cc1cn([C@H]2C=C[C@@H](COP(=O)(O)OP(=O)(O)OP(=O)(O)O)O2)c(=O)[nH]c1=O` [d4TTP, d4T triphosphate, reference compound], in data set [1], the “substrate for HIV-RT (primer extension)” value is recorded as “incorporation of d4TMP was detected; also recorded: good substrates”. Further, in data set [2], the “substrate for human DNA polymerase β (primer extension)” value is reported as “substrate”.
A word on the CC50: it is the concentration giving 50% cytotoxicity. On to `CCCCOP(=O)(OCCCC)OP(=O)(O)OP(=O)(O)OP(=O)(O)OC[C@@H]1C=C[C@H](n2cc(C)c(=O)[nH]c2=O)O1` [4a, δ-(Alkyl-C4; alkyl-C4)-d4T4P], for which the CC50 in data set [3] and in data set [4] was over 100 µM each time. Further, the EC50 in data set [5] was 0.22 ± 0.13 µM; in data set [6] it was 0.16 ± 0.04 µM; in data set [8], 14.8 ± 2.8 µM. The “substrate for human DNA polymerase β (primer extension)” value in data set [2] is on record as “substrate”. Besides, the half-life at 1.9 mM in data set [7] is 167 h.
